Measured values from US20140271766A1 (priority 2013, published 2014).
Where “and” joins values, the source holds several entries; their conditions need not be identical. Equal values may be shown once. Read-outs that look alike come from different tables or passages of the source. Marks after values point to notes of the source that are not given here.

Key:
[1] = human, in vivo
[2] = human, in vivo; remark: listed apart in the source
[3] = buprenorphine, individual patient

SMILES: CO[C@@]12CC[C@@]3(C[C@@H]1[C@](C)(O)C(C)(C)C)[C@H]1Cc4ccc(O)c5c4[C@@]3(CCN1CC1CC1)[C@H]2O5 [buprenorphine]
- Cave from Day 21 to removal, higher in higher dose group as compared with lower dose group [1]: 93%
- Cmax, average, higher in higher dose group as compared with lower dose group [1]: 62%
- reduction in buprenorphine concentrations from Day 17 to removal [1]: ≤ 50%
- shortest half-life during the plateau phase [1]: 25 weeks
- time to reach plateau phase of buprenorphine concentrations [1]: ≤ 21 days
- Renal clearance [2]: 0.0552 mL/min
- Model predicted concentration at removal ([3]; 2 implants): 263 pg/ml and 342 pg/ml (2×) and 252 pg/ml and 447 pg/ml and 338 pg/ml
- Time from implant to reaching 2x last concentration ([3]; 2 implants): 180 h
- α-Half Life ([3]; 2 implants): 115^b hours
- β-Half Life ([3]; 2 implants): 3578^bc hours
- γ-Half life ([3]; 2 implants): 120 weeks
- Model predicted concentration at removal ([3]; 4 implants): 6.69 pg/mL and 5.33 pg/mL and 5.76 pg/mL and 5.01 pg/mL and 7.78 pg/mL
- Time from implant to reaching 2x last concentration ([3]; 4 implants): 690 h and 710 h
- β-Half Life ([3]; 4 implants): 12.0 h and 16.0 h and 24.0 h
